# Columns and labels:
# [1] = biological target: T1, control peptide (518-542) (Human immunodeficiency virus type 1 BH10, UniProt P03375); experiment: Attachment of ATA determined by anti-ATA antibodies (double antibody RIA); assay type: binding, HIV-1; settings: FIG. 2
# T1 construct: cut from Env gp160
# Method: Antibodies to ATA were detected by double antibody RIA using wells coated with an ATA-ovalbumin conjugate. This conjugate was prepared in the same way as described for the ATA-BSA conjugate. Dilution endpoints of anti-ATA antibodies, determined as described by Ritchie, D. G., Nickerson, J. M., and Fuller, G. M. (1983), "Two Simple Programs for the Analysis of Data from Enzyme-linked Immunosorbent Assays (ELISA) on a Programmable Desk-top Calculator," Methods in Enzymology, 92, 577-588) of the two antisera were: 1:2,700 and 1:150,000, respectively. The second antiserum was used for subsequent RIA tests.
# ATA was also added to a control peptide, (518-542), and to wells coated with gelatin only. After incubation for 4 hours at 20° C., excess ATA was removed, the wells were washed with TS and attached ATA was determined by double-antibody RIA using serial dilutions of the anti-ATA antiserum. Similar tests were carried out with serum from the same rabbit before immunization with the ATA-BSA conjugate; the corresponding results (100-450 cpm) were subtracted from cpm corresponding to RIA results obtained with the anti-ATA antiserum. For additional assays aimed at determining the binding of ATA to synthetic peptides from gp120 and gp41 of HIV-1 BH 10 and to V3 hypervariable loop peptides from 20 additional HIV-1 isolates, anti-ATA antiserum was used at a final dilution of 1:800.
# [2] = biological target: T2, HIV-1 IIIB glycoprotein gp120 V3 hypervariable loop (Human immunodeficiency virus type 1 BH10, UniProt P03375); experiment: Inhibition of the reaction between HIV-1 IIIB gp120 and three distinct antibodies reacting with the V3 hypervariable loop (FIGS. 8-11); assay type: binding; settings: 60 μg/ml, metal complexes versus uncomplexed
# T2 construct: b180 also mentions the V3 loop peptide
# Method: (§1) FIG. 8 is a bar graph depicting the inhibitory effect of chlorine6 (60 μg/ml) and metal chelates thereof on the reaction between HIV-1 IIIB glycoprotein gp120 and three distinct antibodies reacting with the V3 hypervariable loop of this glycoprotein. The antisera used were rabbit antiserum to a synthetic peptide corresponding to the V3 hypervariable loop of HIV-1 clone BH10, serum of a chimpanzee immunized with V3 hypervariable loop peptides of distinct HIV-1 isolates and monoclonal antibodies (McAb NEA 9305) raised against residues (315-329) of the V3 hypervariable loop of HIV-1 BH10 (Neurath et al (1990), Molec. Immunol., 27, 539-549).
# FIG. 9 is a bar graph depicting the inhibitory effect of deuteroporphyrin IX,2-vinyl,4-hydroxymethyl (60 μg/ml) and metal chelates thereof on the reaction between HIV-1 IIIB glycoprotein gp120 and three distinct antibodies reacting with the V3 hypervarible loop of this glycoprotein. The antisera used were rabbit antiserum to a synthetic peptide corresponding to the V3 hypervariable loop of HIV-1 clone BH10, serum of a chimpanzee immunized with V3 hypervariable loop peptides of distinct HIV-1 isolates and monoclonal antibodies (McAb NEA 9305) raised against a synthetic peptide corresponding to residues (315-329) of the V3 hypervariable loop of HIV-1 BH10 (Neurath et al (1990), Molec. Immunol 27, 539-549).
# as §1, with “FIG. 10” for “FIG. 8”, “of meso-tetra (4-carboxyphenyl)porphine” for “of chlorine6”, “against a synthetic peptide corresponding to” for “against”, “HIV-1 BH10.” for “HIV-1 BH10”
# as §1, with “FIG. 11” for “FIG. 8”, “of uroporphyrin III” for “of chlorine6”, “against a synthetic peptide corresponding to” for “against”, “et al,” for “et al”, “Molec. lmmunol.,” for “Molec. Immunol.,”, “27, 539-549)” for “27, 539-549).”
# Monoclonal antibodies (McAbs) recognizing the V3 hypervariable loop of HIV-1 BH 10 (McAb 9305 from DuPont, Wilmington, Del.) and an antiserum from a chimpanzee immunized with a mixture of V3 hypervariable loop peptides from 21 distinct HIV1 isolates (Girard, M., Kieny, M-P., Pinter, A., Barre-Sinoussi, F., Nara, P., Kolbe, H., Kusumi, K., Chaput, A., Reinhart, T., Muchmore, E, Ronco, J., Kaczorek, M., Gomard, E, Gluckman, JC., Fultz, P. N. (1991), "Immunization of Chimpanzees Confers Protection Against Challenge with Human Immunodeficiency Virus", Proc. Natl. Acad. Sci. USA, 88, 542-546) were also used for studies on the inhibitory affect of ATA on the reaction between these antibodies and gp120, using ELISA tests. These tests were carried out similarly as RIA, except that sodium merthiolate (1 mg/ml) was added to the buffers instead of NaN3, and goat antimouse IgG antibodies (Boehringer Mannheim Biochemicals, Indianapolis, Ind.) and goat anti-human IgG antibodies (Sigma, St. Louis, Mo.), respectively, each linked to horseradish peroxidase were used as second antibodies at final dilutions of 1:1,000 in phosphate-buffered saline (PBS) containing 10% goat serum and 0.1% Tween 20. […]
SMILES,binding of ATA to control peptide (anti-ATA antibodies) [1],inhibitory activity on the interaction between the V3 hypervariable loop of HIV-1-IIIB and antisera [2]
"O=C(O)C1=CC(=C(c2ccc(O)c(C(=O)O)c2)c2ccc(O)c(C(=O)O)c2)C=CC1=O [substance #122, aurintricarboxylic acid]",not with gelatin or a control peptide (518-542),
"C=Cc1c(C)c2cc3nc(c(CC(=O)O)c4[nH]c(cc5nc(cc1[nH]2)C(C)=C5CC)c(C)c4C(=O)O)[C@@H](CCC(=O)O)[C@@H]3C [substance #149, chlorine e6]",,considerable inhibitory activity
